Data set [1] deals with NXTAR. The data set is described as follows: qRT-PCR of NXTAR expression in prostate cancer cell lines. The data set is classed as cell-based, human. As to the method:
(§1) Cells were transfected, infected or treated [(R)-9b; EPZ6438, TargetMol, Cat #T1788] accordingly. RNA was used for cDNA preparation using High-Capacity cDNA Reverse Transcription Kit (Thermo Scientific Cat #4368814). Resulting cDNA was then analyzed by qPCR using an Applied Biosystems 7900 Real-Time PCR System (Thermo Scientific) and SYBR Green PCR Master Mix [SYBR PremixEx Taq II (Tli RNase H Plus) ROX, Clontech Takara, Cat #RR82LR] according to the manufacturers' instructions. Dissociation curves were generated for each plate to verify the integrity of the primers. The relative expression of RNAs was calculated using the comparative Ct or standard curve method. 18S rRNA or actin were used as internal controls.
Background: In qPCR the cycle at which signal appears reflects the starting amount.

The test system of data set [2] is NXTAR promoter. The data set is described as follows: ChIP-qPCR at NXTAR promoter (Ppr3, Ppr4), IRF8 binding site and NXTAR enhancer. To be noted: 22Rv1 and LNCaP cells, (R)-9b combined with CPTH2. The format is cell-based, human. The method, then: (§2) Chromatin immunoprecipitation (ChIP), quantitative RT-PCR, and ChIP-qPCR were performed as described earlier (see e.g., Mahajan et al. (2017) Cancer Cell; Mahajan et al. (2012) J Biol Chem; and Mahajan et al. (2012) Nat Struct Mol Bio). Briefly, cells were either transfected, infected or treated with various inhibitors (R)-9b; CPTH2 (Sigma, Cat #C9873)], fixed in formaldehyde, lysed and ChIP was performed with antibodies recognizing AR (SCBT, sc-7305; RRID:AB_626671), GCN5 (SCBT, SC-365321; RRID:AB_10846182), H3K14ac (CST, 7627S; RRID:AB_10839410), H3K27me3 (CST, 9733S; RRID:AB 2616029), NCOR1 (Bethyl Laboratories, Cat #A301-145A; RRID:AB_873085), EZH2 (CST, 5246S; RRID:AB_10694683), or IgG (Abcam, ab2410; RRID:AB_303052), immobilized on Protein A magnetic beads (Biorad, Cat #161-4013). The complexes were washed with ChIP buffers, eluted with elution buffer (Active Motif, Cat #53008), and subjected to reverse crosslinking, followed by RNase and proteinase K treatments. A part of soluble chromatin was processed separately at the same time and designated as input DNA. Treated ChIP DNA and input DNAs were purified using PCR-DNA purification columns (Qiagen, Cat #28106). The amount of immunoprecipitated DNA was determined by real-time PCR.

Data set [3] has as its system AR. The data set is described as follows: qRT-PCR of AR and AR target gene expression in prostate cancer cells. The data set is classed as cell-based, human. As to the method:
(§3) NXTAR-N5 oligonucleotide was synthesized by IDT, and the oligonucleotide sequence is provided in TABLE 1 and FIG. 7C (* represents phosphorothioate bond modifications to avoid degradation by exonucleases). Equal numbers of VCaP and 22Rv1 cells were transfected with NXTAR-N5 or globin-derived oligonucleotide using X-tremeGENE360 (Sigma-Aldrich, Cat #08724121001), and the number of live cells was counted 96 h post-transfection using trypan blue exclusion method (Sigma, Cat #T8154). RNA was prepared from these cells, and qRT-PCR [SYBR PremixEx Taq II (Tli RNase H Plus)ROX, Clontech Takara, Cat #RR82LR] for AR and AR-V7 was performed as described earlier (see e.g., Mahajan et al. (2017) Cancer Cell).
as §1

In data set [4] the test system is VCaP and 22Rv1 cells. The data set can be described thus: Proliferation assay, viable cells by trypan blue exclusion. The data set is classed as cell-based, human. As to the method:
as §3
The 22Rv1, VCaP, or LNCaP cells were retrovirally infected with control or NXTAR vectors and selected in puromycin medium containing 5% charcoal-stripped serum. Equal numbers of selected cells were seeded in 6-well plates followed by treatment with either (R)-9b, enzalutamide (Selleck Chemicals, Cat #S1250), or abiraterone (Selleck Chemicals, Cat #52246), and the number of viable cells was counted by trypan blue exclusion assay.

Data set [5] has as its system AR promoter. The data set can be described thus: ChIP-qPCR (EZH2, H3K27me3) at AR promoter. To be noted: VCaP cells transfected with oligo, ChIP. The data set is classed as cell-based, human. The method, then: as §2
Data set [6] deals with AR-V7. The data set can be described thus: qRT-PCR of AR-V7 expression in prostate cancer cells. The following applies: VCaP and 22Rv1 cells transfected with oligonucleotide. The format is cell-based, human. As to the method: as §3
as §1, with “18S rRNA or actin were used as internal controls.” left out

In data set [7] the test system is upstream of AR. The data set is described as follows: ChIRP with biotin-labeled oligos and VCaP lysate, qPCR with AR Up1.1 primers. The data set is classed as binding, human. The following applies: biotinylated oligo on streptavidin beads, VCaP lysate, qPCR AR Up1.1. The method, then: (§4) Biotin-labeled NXTAR-N5 (complementary to the AR promoter) and globin oligos were synthesized (IDT) (see e.g., TABLE 1). ChIRP was performed using lysate from formaldehyde-fixed VCaP cells and oligos that were immobilized to streptavidin beads, as described earlier (see e.g., Chu and Chang (2016) Methods Mol Bio). The amount of the chromatin DNA was determined by real-time PCR. For detection of NXTAR-N5/EZH2 binding, biotin-labeled NXTAR-N5 oligo and control globin oligo were incubated with VCaP cell lysates and were subjected to chromatin pull-down, followed by immunoblotting with EZH2 antibodies.

Data set [8] deals with T1, EZH2 (Homo sapiens, UniProt Q15910).
T1 construct: endogenous in cells; host or cells: VCaP cells (some retrovirally infected to over-express NXTAR lncRNA)
The data set is described as follows: Pull-down from VCaP cell lysates with biotinylated oligos, immunoblotting for EZH2. The format is binding. To be noted: VCaP cell lysate, chromatin pull-down. The method, then:
The biotinylated oligonucleotides were incubated with lysates (2 h), and the lysates were incubated with streptavidin magnetic beads overnight. Beads attached to RNAs were divided equally and processed for either RNA isolation or western blotting. For RNA isolation, beads were washed three times and then separated using proteinase K treatment. RNA was then isolated and purified, and DNA was digested in the process. The real-time quantitative RT-PCR was performed on isolated RNA to check the efficiency of pull-down of NXTAR RNA. The remaining beads were heated at 80° C. for 5 min in loading buffer, followed by western blotting. The blots were probed with EZH2 (CST, 5246S; RRID:AB_10694683) antibody and Actin (SCBT, sc-47778; RRID:AB_2714189) was used as the loading control.
as §4

Data set [9] concerns the target T2, purified EZH2 (Homo sapiens, UniProt Q15910).
T2 construct: made in house
The data set can be described thus: EZH2 pull-down assay with purified 6xHis-tagged EZH2. The format is binding. To be noted: pull-down, immunoblotting. The method, then: 1 mg of lysate prepared from HEK293 cells transfected with 6λHis-tagged-EZH2 plasmid was incubated with Ni-NTA agarose beads (Qiagene) overnight at 4° C. Beads were washed three times using wash buffer (20 mM Tris/HCl, 200 mM NaCl, 5 mM imidazole; pH 7.5) and purified EZH2 was eluted using elution buffer (20 mM Tris/HCl, 200 mM NaCl, 200 mM imidazole; pH 7.5).
LncRNA-Protein binding study was performed as described earlier (see e.g., Zhao, Wang, and Hu (2021) Methods Mol Bio). Briefly, 10 pmol Biotinylated NXTAR-N5 oligo or Biotinylated Globin oligos were diluted in 40 ul RNA structure buffer, heated at 90° C. for 2 min, immediately transferred onto ice for 2 min and then kept at RT for further 20 mins. 10 uM of purified EZH2 protein was added to these biotinylated oligos with 500 ul of NETN buffer and the tubes were placed at 4° C. for 2 hrs. Post washing with cold NETN buffer, streptavidin magnetic beads (60 ul) were added into prepared oligo-protein mix and incubated at 4° C. overnight. Beads were washed 3 times with NETN buffer, followed by western blot analysis. […]
Background: In western blotting, separated proteins are transferred to a membrane and probed.

Where [10] appears, read: Enzalutamide-resistant VCaP cells, 7 μM enzalutamide, 96 h.

From patent US12194057B2, “NXTAR-derived oligonucleotides and uses thereof” (Washington University, priority 2020, dated 2025) come the findings set out here.

Oligonucleotides are written 5' to 3', each unit as a sugar letter and its base; * is a phosphorothioate linkage, no mark a phosphodiester; rarer units and linkages stand in square brackets, end groups in braces. Plain capitals give the bases only. d = 2'-deoxy (DNA)

T2 sequence (Q15910 whole entry): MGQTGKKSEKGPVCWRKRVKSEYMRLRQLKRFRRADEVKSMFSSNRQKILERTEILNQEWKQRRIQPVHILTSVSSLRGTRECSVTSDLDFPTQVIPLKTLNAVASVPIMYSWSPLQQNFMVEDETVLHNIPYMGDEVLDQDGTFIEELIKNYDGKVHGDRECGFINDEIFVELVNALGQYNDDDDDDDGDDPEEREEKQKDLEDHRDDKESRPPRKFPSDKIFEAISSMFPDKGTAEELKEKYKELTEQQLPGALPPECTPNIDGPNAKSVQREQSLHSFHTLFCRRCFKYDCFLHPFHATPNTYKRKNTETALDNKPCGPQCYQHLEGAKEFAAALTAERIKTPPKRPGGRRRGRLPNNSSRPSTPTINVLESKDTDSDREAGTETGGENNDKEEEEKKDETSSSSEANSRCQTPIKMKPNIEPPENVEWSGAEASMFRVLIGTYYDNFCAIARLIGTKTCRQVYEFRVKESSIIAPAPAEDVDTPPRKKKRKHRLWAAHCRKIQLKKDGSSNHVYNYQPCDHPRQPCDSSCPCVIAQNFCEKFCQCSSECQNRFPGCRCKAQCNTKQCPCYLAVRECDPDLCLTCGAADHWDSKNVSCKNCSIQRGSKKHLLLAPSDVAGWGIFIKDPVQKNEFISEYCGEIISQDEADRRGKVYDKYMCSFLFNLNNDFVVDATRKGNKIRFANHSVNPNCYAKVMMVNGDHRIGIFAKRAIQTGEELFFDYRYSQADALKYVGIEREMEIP
T1 sequence (Q15910 whole entry): as above
T1 sequence (O75530 whole entry partner): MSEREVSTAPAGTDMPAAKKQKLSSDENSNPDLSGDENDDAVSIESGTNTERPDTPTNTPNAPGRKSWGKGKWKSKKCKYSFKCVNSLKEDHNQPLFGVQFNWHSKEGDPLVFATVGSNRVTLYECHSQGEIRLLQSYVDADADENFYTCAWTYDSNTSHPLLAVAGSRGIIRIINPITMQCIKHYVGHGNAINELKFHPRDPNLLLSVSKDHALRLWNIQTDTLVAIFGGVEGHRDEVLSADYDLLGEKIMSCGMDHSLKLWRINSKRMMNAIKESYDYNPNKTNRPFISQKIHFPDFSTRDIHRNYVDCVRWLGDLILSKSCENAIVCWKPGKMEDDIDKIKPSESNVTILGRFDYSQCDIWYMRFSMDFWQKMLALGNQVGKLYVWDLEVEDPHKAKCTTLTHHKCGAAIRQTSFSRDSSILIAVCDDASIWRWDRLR
T1 sequence (Q15022 whole entry partner): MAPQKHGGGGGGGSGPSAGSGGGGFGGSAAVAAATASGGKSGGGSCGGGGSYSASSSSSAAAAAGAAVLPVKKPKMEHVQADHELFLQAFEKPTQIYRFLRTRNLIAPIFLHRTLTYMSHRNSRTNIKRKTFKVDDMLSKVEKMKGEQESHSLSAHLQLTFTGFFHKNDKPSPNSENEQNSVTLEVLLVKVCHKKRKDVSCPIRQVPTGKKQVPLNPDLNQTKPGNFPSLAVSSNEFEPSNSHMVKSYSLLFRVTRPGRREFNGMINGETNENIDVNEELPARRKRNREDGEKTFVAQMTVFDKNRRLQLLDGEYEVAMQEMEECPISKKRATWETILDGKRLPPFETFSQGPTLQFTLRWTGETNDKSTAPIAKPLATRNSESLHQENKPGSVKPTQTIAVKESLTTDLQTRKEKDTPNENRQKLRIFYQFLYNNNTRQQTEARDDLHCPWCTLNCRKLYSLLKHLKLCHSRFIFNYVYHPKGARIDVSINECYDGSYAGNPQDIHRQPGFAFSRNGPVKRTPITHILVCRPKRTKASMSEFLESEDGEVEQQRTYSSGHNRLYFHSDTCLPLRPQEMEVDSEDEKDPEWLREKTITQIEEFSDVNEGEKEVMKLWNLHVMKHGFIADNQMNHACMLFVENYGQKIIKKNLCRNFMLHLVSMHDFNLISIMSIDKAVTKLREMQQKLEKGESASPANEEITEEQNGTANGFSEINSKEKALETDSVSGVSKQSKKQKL
T1 sequence (Q09028 whole entry partner): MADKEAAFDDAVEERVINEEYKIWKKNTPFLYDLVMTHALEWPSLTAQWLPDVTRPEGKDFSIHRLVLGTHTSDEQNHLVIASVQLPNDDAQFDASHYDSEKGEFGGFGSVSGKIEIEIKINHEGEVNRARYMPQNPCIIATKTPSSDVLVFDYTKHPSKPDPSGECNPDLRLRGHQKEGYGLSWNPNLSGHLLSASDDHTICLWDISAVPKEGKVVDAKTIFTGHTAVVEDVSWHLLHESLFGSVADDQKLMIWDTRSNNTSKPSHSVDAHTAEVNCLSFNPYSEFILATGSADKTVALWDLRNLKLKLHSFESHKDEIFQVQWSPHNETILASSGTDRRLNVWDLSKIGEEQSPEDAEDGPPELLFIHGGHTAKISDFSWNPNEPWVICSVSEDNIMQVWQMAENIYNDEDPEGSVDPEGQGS

As to `Clc1ccc(-c2csc(NN=C3CCCC3)n2)cc1` [CPTH2], in data set [1] (22Rv1 and LNCaP cells, CPTH2 in combination with (R)-9b), the “NXTAR levels following (R)-9b treatment under GCN5 inhibition” value was “severely compromised”. Besides, in [2], the “H3K14ac mark deposition at Ppr3 and Ppr4” value was “abrogated”.

With `CCN(c1cc(-c2ccc(CN3CCOCC3)cc2)cc(C(=O)NCc2c(C)cc(C)[nH]c2=O)c1C)C1CCOCC1` [EPZ6438, reference compound], the AR expression entry in [3] (VCaP cells infected with NXTAR construct, EPZ6438 1 μM overnight) is reported as “restored the AR expression”.

For `CNC(=O)c1ccc(N2C(=S)N(c3ccc(C#N)c(C(F)(F)F)c3)C(=O)C2(C)C)cc1F` [enzalutamide, reference compound], the NXTAR levels entry in data set [1] (setting [10]) is “no change in NXTAR levels”. In addition, the “proliferation (number of viable cells)” value in [4] (VCaP (9 days) and 22Rv1 (5 days) cells, androgen-deprived, drug treatment) is given as “did not result in a significant decrease in proliferation”. The AR levels entry in data set [3] (setting [10]) is given as “marginal decrease in AR levels”.

As to “NXTAR-N5: 60-mer oligonucleotide, nt 511-570 of SEQ ID NO: 58, terminal phosphorothioate bonds (SEQ ID NO: 1) (DNA dA*dT*dT*dAdTdTdAdTdTdTdTdAdAdAdTdTdTdAdCdAdGdAdAdGdGdGdGdAdAdAdCdTdAdAdGdAdAdTdTdAdTdAdGdAdCdAdTdGdAdAdGdTdGdAdCdTdC*dA*dC*dC)”, the “histone H3K27 methylation in the AR promoter region (−0.7 kb)” value in [5] was “induced histone H3K27 methylation”. Also, the “proliferation (live cells)” value in [4] (VCaP and 22Rv1 cells, 96 h post-transfection) was “compromised proliferation”. Besides, in data set [3] (VCaP and 22Rv1 cells transfected with oligonucleotide), the AR transcription entry is “significant decrease”. In data set [3] (transfection of oligos, prostate and other cancer cell lines), the AR expression entry is “highly effective”. In addition, the AR-V7 transcription result in data set [6] is reported as “significant decrease”. Further, the “binding upstream of AR” value in data set [7] is “bound upstream of AR”. For the same compound, the “interaction with EZH2” value in [8] is “interaction with EZH2 was confirmed”. In data set [9], the “interaction with purified EZH2” value was “interaction with purified EZH2 (as described above) was confirmed”.
